Results taken from article PMC11772017 (Clinical and Translational Science, 2025).
Structures can show the parent of a compound that is named as a salt.

How the values were obtained:
CYP2D6*10 [1] = conditions: microsomes prepared from insect cells; cited from earlier work
CYP2D6*17 [2] = conditions: tramadol as substrate; cited from earlier work
CYP2D6*1 [3] = biological target: T1, CYP2D6*1 (Homo sapiens, UniProt P10635)
CYP2D6*2 [4] = biological target: T2, CYP2D6*2 (Homo sapiens, UniProt P10635, R296C/S486T)
CYP2D6*10 [5] = biological target: T3, CYP2D6*10 (Homo sapiens, UniProt P10635, P34S/S486T)
CYP2D6*17 [6] = biological target: T4, CYP2D6*17 (Homo sapiens, UniProt P10635, R296C/S486T/T107I)
CYP2D6*1 [7] = biological target: T1, CYP2D6*1; test: Inhibition of tramadol O-demethylation, CYP2D6*1 Bactosomes
CYP2D6*2 [8] = biological target: T2, CYP2D6*2; test: Inhibition of tramadol O-demethylation, CYP2D6*2 Bactosomes; conditions: for Ki Ratio CYP2D6*2/CYP2D6*1: Ki of variant allele / Ki of CYP2D6*1
CYP2D6*10 [9] = biological target: T3, CYP2D6*10; test: Inhibition of tramadol O-demethylation, CYP2D6*10 Bactosomes; conditions: for Ki Ratio CYP2D6*10/CYP2D6*1: Ki of variant allele / Ki of CYP2D6*1
CYP2D6*17 [10] = biological target: T4, CYP2D6*17; test: Inhibition of tramadol O-demethylation, CYP2D6*17 Bactosomes; conditions: for Ki Ratio CYP2D6*17/CYP2D6*1: Ki of variant allele / Ki of CYP2D6*1

For `COc1cccc(C2(O)CCCCC2CN(C)C)c1` (stereo not drawn) [Tramadol, tramadol hydrochloride], the “intrinsic clearance value, % of that for CYP2D6*1” value (CYP2D6*10 [1]) is given as 6.9%, the “intrinsic clearance relative to CYP2D6*1” value (CYP2D6*17 [2]) is given as 36% and the CLint (CYP2D6*1 [3]; CYP2D6*1, CLint = Vmax/Km) is given as 0.4 μL/min/pmol P450. For the same compound, the Vmax (CYP2D6*1 [3]; CYP2D6*1, O-desmethyltramadol formation) was 22.6 pmol/min/pmol P450, the Km at 30 min (CYP2D6*1 [3]; human, recombinant CYP2D6*1 Bactosomes, pH 7.4) was 59.6 µM and the “intrinsic clearance compared to CYP2D6*1” value (CYP2D6*2 [4]; CYP2D6*2, relative to CYP2D6*1) was 180%. The “CLint ratio CYP2D6*X/CYP2D6*1” value (CYP2D6*2 [4]; CYP2D6*2/CYP2D6*1) was 1.8, the CLint (CYP2D6*2 [4]; CYP2D6*2, CLint = Vmax/Km) was 0.7 μL/min/pmol P450 and the Vmax (CYP2D6*2 [4]; CYP2D6*2, O-desmethyltramadol formation) was 39.7 pmol/min/pmol P450. For the same compound, the Km at 30 min (CYP2D6*2 [4]; human, recombinant CYP2D6*2 Bactosomes, pH 7.4) was 59.4 µM, the “intrinsic clearance compared to CYP2D6*1” value (CYP2D6*10 [5]; CYP2D6*10, relative to CYP2D6*1) was 20% and the “CLint ratio CYP2D6*X/CYP2D6*1” value (CYP2D6*10 [5]; CYP2D6*10/CYP2D6*1) was 0.2. It also gave a CLint (CYP2D6*10 [5]; CYP2D6*10, CLint = Vmax/Km) of 0.1 μL/min/pmol P450, a Vmax (CYP2D6*10 [5]; CYP2D6*10, O-desmethyltramadol formation) of 13.6 pmol/min/pmol P450 and a Km at 30 min (CYP2D6*10 [5]; human, recombinant CYP2D6*10 Bactosomes, pH 7.4) of 204 µM. The “intrinsic clearance compared to CYP2D6*1” value (CYP2D6*17 [6]; CYP2D6*17, relative to CYP2D6*1) was 10%, the “CLint ratio CYP2D6*X/CYP2D6*1” value (CYP2D6*17 [6]; CYP2D6*17/CYP2D6*1) was 0.1 and the Vmax (CYP2D6*17 [6]; CYP2D6*17, O-desmethyltramadol formation) was 5.6 pmol/min/pmol P450. For the same compound, the Km at 30 min (CYP2D6*17 [6]; human, recombinant CYP2D6*17 Bactosomes, pH 7.4) was 149 µM.

With `CN(C/C=C/C#CC(C)(C)C)Cc1cccc2ccccc12` [Terbinafine, terbinafine] the Ki (CYP2D6*1 [7]) was 0.0173 µM, the Ki (CYP2D6*2 [8]) was 0.067 µM and the “Ki Ratio CYP2D6*2/CYP2D6*1” value (CYP2D6*2 [8]) was 3.87. For the same compound, the Ki (CYP2D6*10 [9]) was 0.235 µM, the “Ki Ratio CYP2D6*10/CYP2D6*1” value (CYP2D6*10 [9]) was 13.61 and the Ki (CYP2D6*17 [10]) was 0.844 µM. The “Ki Ratio CYP2D6*17/CYP2D6*1” value (CYP2D6*17 [10]) was 48.77.

In the case of `CC(NC(C)(C)C)C(=O)c1cccc(Cl)c1` (stereo not drawn) [Bupropion, bupropion], the Ki (CYP2D6*1 [7]) is reported as 11.9 µM, the Ki (CYP2D6*2 [8]) is reported as 11.5 µM and the “Ki Ratio CYP2D6*2/CYP2D6*1” value (CYP2D6*2 [8]) is reported as 0.96. The Ki (CYP2D6*10 [9]) was 55.9 µM, the “Ki Ratio CYP2D6*10/CYP2D6*1” value (CYP2D6*10 [9]) was 4.69 and the Ki (CYP2D6*17 [10]) was 20.2 µM. The “Ki Ratio CYP2D6*17/CYP2D6*1” value (CYP2D6*17 [10]) was 1.70.
